Where “and” joins values, the source holds several entries; their conditions need not be identical. Equal entries are not always repeated.
What follows are compounds tested against SARS-CoV-2 3CL protease (Severe acute respiratory syndrome coronavirus 2, UniProt P0DTD1) (assay: biochemical). Details: IC50.

Structure (SMILES) | IC50
COc1ccc(Nc2nc(=O)n(Cc3ccc[nH]c3=O)c(=O)n2Cc2nc3ccccc3s2)cc1 [Compound I-0223] | 4.3 µM and 1 to 10 µM
N#Cc1cc(Cn2c(Nc3ccc4c(c3)CCO4)nc(=O)n(-c3cncc(CO)c3)c2=O)ccc1F [Compound I-0356] | < 0.1 µM
CCOC(=O)c1cc(F)c(F)cc1Cn1c(Nc2cc3cn(C)nc3cc2Cl)nc(=O)n(Cc2ncn(C)n2)c1=O [II-0636] | < 0.1 µM
Cc1nc2cc(Cl)c(Nc3nc(=O)n(Cc4ccc[nH]c4=O)c(=O)n3Cc3ccc(F)c(C#N)c3)cc2n1C [Compound I-0266] | < 0.1 µM
CCS(=O)(CC)=Nc1ccc(Nc2nc(=O)n(-c3cncc(C)c3)c(=O)n2Cc2cc(Cl)ccc2C)c(Cl)c1 [II-0621] | < 0.1 µM
CC(=O)Nc1ccc(C#N)cc1Cn1c(Nc2cc3cn(C)nc3cc2Cl)nc(=O)n(-c2cncc(C)c2)c1=O [II-0594] | 0.27 µM
CNC(=O)Cn1c(=O)[nH]/c(=N\c2ccc(OC(F)F)cc2C)n(Cc2cc(F)c(F)c(F)c2)c1=O [II-0331] | 1 to 10 µM
Cn1cnc(Cn2c(=O)nc(Nc3cc4cn(C)nc4cc3Cl)n(Cc3cc(F)cc4c3OCOC4)c2=O)n1 [II-0211] | < 0.1 µM
COc1ccc(Nc2nc(=O)n(Cc3cc(-c4cccnc4)c[nH]c3=O)c(=O)n2Cc2cc(F)c(F)c(F)c2)cc1 [Compound I-0386] | < 0.1 µM
CN1Cc2cc(Nc3nc(=O)n(Cc4ccc[nH]c4=O)c(=O)n3Cc3cc(F)c(F)c(F)c3)ccc2C1=O [Compound I-0438] | 0.74 µM and 0.1 to 1 µM
Cc1nc2cc(Cl)c(Nc3nc(=O)n(Cc4ccc[nH]c4=O)c(=O)n3Cc3cc(F)c(F)c(F)c3)cc2n1CC(C)(C)O [Compound I-0445] | < 0.1 µM
O=c1[nH]cccc1Cn1c(=O)nc(NC23CC(Nc4ccccn4)(C2)C3)n(Cc2cc(F)c(F)c(F)c2)c1=O [II-0476] | < 0.1 µM
Cc1nc2cc(Cl)c(Nc3nc(=O)n(Cc4ccc[nH]c4=O)c(=O)n3Cc3cc(F)c(F)c(F)c3)cc2n1CCCS(C)(=O)=O [Compound I-0446] | < 0.1 µM
Cn1cc2cc(Nc3nc(=O)n(Cc4cc5ccsc5[nH]c4=O)c(=O)n3Cc3ccc(F)c(C#N)c3)ccc2n1 [II-0009] | < 0.1 µM
CC(=O)Nc1nc2ccc(Nc3nc(=O)n(Cc4ccc[nH]c4=O)c(=O)n3Cc3cc(F)c(F)c(F)c3)cc2s1 [Compound I-0458] | < 0.1 µM
CNC(=O)c1c[nH]c(=O)c(Cn2c(=O)nc(Nc3cc4cn(C)nc4cc3Cl)n(Cc3cc(F)c(F)c(F)c3)c2=O)c1 [Compound I-0477] | < 0.1 µM
CN1CC[C@H](n2cc3cc(Nc4nc(=O)n(Cc5ncn(C)n5)c(=O)n4Cc4cc(Cl)c(F)cc4F)c(Cl)cc3n2)C1=O [II-0447] | < 0.1 µM
CO[C@H]1C[C@H](Nc2nc(=O)n(Cc3ccc[nH]c3=O)c(=O)n2Cc2cc(F)c(F)c(F)c2)C1 [Compound I-0207] | 1.9 µM and 1 to 10 µM
Cc1cncc(-n2c(=O)nc(Nc3ccc(N=S(C)(C)=O)cc3Cl)n(Cc3ccc(F)c(C#N)c3)c2=O)c1 [II-0575] | < 0.1 µM
CN1CC[C@H](n2cc3cc(Nc4nc(=O)n(Cc5ncn(C)n5)c(=O)n4Cc4cc(F)c(F)c(Cl)c4)c(Cl)cc3n2)C1=O [II-0451] | < 0.1 µM
Cc1cncc(-n2c(=O)nc(Nc3ccc(N=S4(=O)CCCC4)cc3)n(Cc3cc(Cl)ccc3C)c2=O)c1 [II-0618] | < 0.1 µM
COc1ccc(Nc2nc(=O)n(Cc3c[nH]c(=O)[nH]c3=O)c(=O)n2Cc2cc(F)c(F)c(F)c2)cc1 [Compound I-0099] | < 0.1 µM
COCCOc1ccc(Nc2nc(=O)n(Cc3ccc[nH]c3=O)c(=O)n2Cc2cc(F)c(F)c(F)c2)c(Cl)c1 [Compound I-0096] | < 0.1 µM

Structure (SMILES) | IC50
CC(=O)NCCn1cc2cc(Nc3nc(=O)n(Cc4ccc[nH]c4=O)c(=O)n3Cc3cc(F)c(F)c(F)c3)c(Cl)cc2n1 [Compound I-0449] | < 0.1 µM
COc1ccnc(NC23CC(Nc4nc(=O)n(Cc5ncn(C)n5)c(=O)n4Cc4cc(F)c(F)c(F)c4)(C2)C3)n1 [II-0113] | < 0.1 µM
CNC(=O)c1c[nH]c(=O)c(Cn2c(=O)nc(Nc3cc4c(cc3Cl)OCC4)n(Cc3cc(F)c(F)c(F)c3)c2=O)c1 [Compound I-0478] | < 0.1 µM
NC(=O)c1cnc2[nH]c(=O)c(Cn3c(=O)nc(Nc4ccc5c(c4)CCO5)n(Cc4cc(F)c(F)c(F)c4)c3=O)cc2c1 [II-0317] | < 0.1 µM
Cn1cnc(Cn2c(=O)nc(Nc3cc4cn(CC(=O)N5CCCC5)nc4cc3Cl)n(Cc3cc(F)c(F)c(Cl)c3)c2=O)n1 [II-0147] | < 0.1 µM
Cc1cncc(-n2c(=O)nc(Nc3cc(F)c(N=S4(=O)CCCC4)cc3Cl)n(Cc3cc(Cl)ccc3C)c2=O)c1 [II-0620] | < 0.1 µM
Cc1cncc(-n2c(=O)nc(Nc3cc4sc(NCC5CC5)nc4cc3Cl)n(Cc3ccc(F)c(C#N)c3)c2=O)c1 [II-0081] | < 0.1 µM
COC(=O)NC12CC(Nc3nc(=O)n(Cc4ccc[nH]c4=O)c(=O)n3Cc3cc(F)c(F)c(F)c3)(C1)C2 [II-0062] | < 0.1 µM
O=c1[nH]cccc1Cn1c(=O)nc(NC23CC(Nc4ncccn4)(C2)C3)n(Cc2cc(F)c(F)c(F)c2)c1=O [II-0443] | < 0.1 µM
Cn1cc2cc(Nc3nc(=O)n(Cc4cc(F)c[nH]c4=O)c(=O)n3Cc3ccc(F)c(C#N)c3)c(Cl)cc2n1 [Compound I-0270] | < 0.1 µM
COc1ccc(Nc2cc(=O)n(Cc3ccc[nH]c3=O)c(=O)n2Cc2cc(F)c(F)c(F)c2)cc1 [Compound I-0326] | 0.065 µM
O=c1[nH]cccc1Cn1c(=O)nc(NC2CC(F)(F)C2)n(Cc2cc(F)c(F)c(F)c2)c1=O [II-0231] | 0.88 µM
Cc1cncc(-n2c(=O)nc(Nc3ccc(N=S4(=O)CCCC4)c(Cl)c3Cl)n(Cc3cc(Cl)ccc3C)c2=O)c1 [II-0617] | < 0.1 µM
O=c1[nH]cccc1Cn1c(=O)nc(Nc2cc3cn(CC4(CO)COC4)nc3cc2Cl)n(Cc2cc(F)c(F)c(F)c2)c1=O [Compound I-0469] | < 0.1 µM
Cc1cncc(-n2c(=O)nc(Nc3cc4cn([C@H]5CC[C@H](N)CC5)nc4cc3Cl)n(Cc3cc(Cl)ccc3Cl)c2=O)c1 [II-0628] | < 0.1 µM
Cc1nc2cc(Cl)c(Nc3nc(=O)n(Cc4c[nH]c(=O)[nH]c4=O)c(=O)n3Cc3cc(F)c(F)c(F)c3)cc2n1C [Compound I-0407] | < 0.1 µM
Cc1cncc(-n2c(=O)nc(Nc3ccc(N=S(C)(C)=O)cc3Cl)n(Cc3cc(Cl)ccc3C)c2=O)c1 [II-0625] | < 0.1 µM
COc1cnc(NC23CC(Nc4nc(=O)n(Cc5ccc[nH]c5=O)c(=O)n4Cc4cc(F)c(F)c(F)c4)(C2)C3)nc1 [II-0441] | < 0.1 µM
Cn1cnc(Cn2c(=O)nc(Nc3cc4cn(C)nc4cc3Cl)n(CC3CCCCC3)c2=O)n1 [II-0606] | 0.1 to 1 µM
CNC(=O)Cn1c(=O)[nH]/c(=N\c2cc3cn(C)nc3cc2Cl)n(Cc2cc(F)c(F)c(F)c2)c1=O [II-0328] | < 0.1 µM
CNc1cncc(-n2c(=O)nc(Nc3cc4c(cc3Cl)OCC4)n(Cc3cc(F)c(F)cc3F)c2=O)c1 [II-0613] | < 0.1 µM
CN(C)C(=O)CCn1cc2cc(Nc3nc(=O)n(Cc4ncn(C)n4)c(=O)n3Cc3cc(Cl)c(F)cc3F)c(Cl)cc2n1 [II-0338] | < 0.1 µM
CNc1cncc(-n2c(=O)nc(Nc3ccc4c(c3)CCO4)n(Cc3cc(F)c(F)cc3F)c2=O)c1 [II-0612] | < 0.1 µM

Structure (SMILES) | IC50
Cn1cc2cc(Nc3nc(=O)n(Cc4c[nH]c(=O)[nH]c4=O)c(=O)n3Cc3cc(F)c(F)c(F)c3)c(Cl)cc2n1 [Compound I-0405] | < 0.1 µM
O=c1[nH]cccc1Cn1c(=O)nc(Nc2cc3nccnc3cc2Cl)n(Cc2cc(F)c(F)c(F)c2)c1=O [Compound I-0098] | < 0.1 µM
Cn1cnc(Cn2c(=O)nc(Nc3cc4cn(C)nc4cc3Cl)n(Cc3ccc(F)c(F)c3)c2=O)n1 [II-0635] | < 0.1 µM
CC(=O)Nc1nc2cc(Cl)c(Nc3nc(=O)n(Cc4ncn(C)n4)c(=O)n3Cc3cc(F)c(F)c(F)c3)cc2s1 [II-0310] | < 0.1 µM
Cc1nc2cc(Cl)c(Nc3nc(=O)n(Cc4ccc[nH]c4=O)c(=O)n3Cc3cc(F)cc(Cl)c3)cc2n1C [Compound I-0005] | < 0.1 µM
CN(C)C(=O)c1ccc(Cn2c(=O)nc(Nc3ccc4c(c3)CCCO4)n(Cc3cc(F)c(F)c(F)c3)c2=O)c(=O)[nH]1 [II-0042] | < 0.1 µM
COc1ncc(Nc2nc(=O)n(-c3cncc(C)c3)c(=O)n2Cc2ccc(F)c(C#N)c2)c(C)n1 [II-0124] | 3.3 µM
O=c1[nH]cccc1Cn1c(=O)nc(N[C@@H]2CCN(c3ccccn3)C2)n(Cc2cc(F)c(F)c(F)c2)c1=O [II-0374] | 3.5 µM
CN(C)C(=O)Cn1cc2cc(Nc3nc(=O)n(Cc4ncn(C)n4)c(=O)n3Cc3cc(Cl)c(F)cc3F)c(Cl)cc2n1 [II-0276] | < 0.1 µM
COc1ccc(Nc2nc(=O)n(Cc3c[nH]ccc3=O)c(=O)n2Cc2cc(F)c(F)c(F)c2)cc1 [Compound I-0083] | 1.8 µM and 1 to 10 µM
CC(C)(C)OC(=O)NC12CC(Nc3nc(=O)n(Cc4ccc[nH]c4=O)c(=O)n3Cc3cc(F)c(F)c(F)c3)(C1)C2 [II-0209] | < 0.1 µM
CN(C)C(=O)Cn1cc2cc(Nc3nc(=O)n(Cc4ncn(C)n4)c(=O)n3Cc3cc(F)c(F)cc3F)c(Cl)cc2n1 [II-0280] | < 0.1 µM
CN(C)C(=O)c1ccc(Cn2c(=O)nc(Nc3cc4cn(C)nc4cc3Cl)n(Cc3cc(F)c(F)c(F)c3)c2=O)c(=O)[nH]1 [Compound I-0063] | < 0.1 µM
Cn1cnc(Cn2c(=O)nc(NC34CC(Nc5ncc6ccccc6n5)(C3)C4)n(Cc3cc(F)c(F)c(F)c3)c2=O)n1 [II-0472] | < 0.1 µM
CNC(=O)c1cnc2[nH]c(=O)c(Cn3c(=O)nc(Nc4ccc5c(c4)CCO5)n(Cc4cc(F)c(F)c(F)c4)c3=O)cc2c1 [II-0314] | < 0.1 µM
Cc1cncc(-n2c(=O)nc(Nc3ccc(N=S4(=O)CCCC4)c(Cl)c3)n(Cc3cc(Cl)ccc3C)c2=O)c1 [II-0615] | < 0.1 µM
CCc1c(F)cc(Cl)cc1Cn1c(Nc2cc3cn(C)nc3cc2Cl)nc(=O)n(Cc2ncn(C)n2)c1=O [II-0639] | < 0.1 µM
CNc1nc2cc(Cl)c(Nc3nc(=O)n(Cc4ncn(C)n4)c(=O)n3Cc3cc(Cl)c(F)cn3)cc2s1 [II-0266] | < 0.1 µM
COc1ccc(Nc2nc(=O)n(Cc3cc(C(=O)NCCN(C)C)c[nH]c3=O)c(=O)n2Cc2cc(F)c(F)c(F)c2)cc1 [Compound I-0092] | < 0.1 µM
Cc1nc2cc(Cl)c(Nc3nc(=O)n(Cc4ccc[nH]c4=O)c(=O)n3Cc3cc(F)c(F)c(F)c3)cc2n1C [Compound I-0439] | < 0.1 µM
Cn1cnc(Cn2c(=O)nc(NC34CC(Nc5ncccn5)(C3)C4)n(Cc3cc(F)c(F)c(F)c3)c2=O)n1 [II-0474] | < 0.1 µM
